Measurements as given in PMC7763444, “Bioactive Steroids from the Red Sea Soft Coral Sinularia polydactyla” (Marine Drugs, 2020).

Experiments:
[1] = tested on: HeLa (human cervical cancer cell line); assay: Cytotoxicity, resazurin assay, 72 h; conditions: read-out: Cytotoxicity (IC50) HeLa
Protocol: (§1) Initially, the cytotoxic activity of metabolites 3–7, 9–12, 14–20, and 22–26 was evaluated in human cancer and normal cells after 72 h of treatment. Human cervical cancer (HeLa), human breast adenocarcinoma (MCF7) cell lines, and human normal fibroblasts (BJ) were used for the screening.
(§2) The tested compounds were dissolved in DMSO to afford 10 mM stock solutions. Human cervical carcinoma (HeLa) and human breast adenocarcinoma (MCF7) cell lines were purchased from European Collection of Authenticated Cell Cultures (ECACC, Salisbury, UK) and cultivated in Dulbecco’s Modified Eagle Medium (DMEM) (Merck, Darmstadt, Germany), as previously reported [27]. […] All cells were maintained in a humidified CO2 incubator at 37 °C using the standard trypsinization procedure twice or three times a week. […] All cells were maintained in a humidified CO2 incubator at 37 °C using the standard trypsinization procedure twice or three times a week.
(§3) In cytotoxicity assays, cancer cells were treated with six different concentrations of each tested compound for 72 h. Cells were stained with resazurin and IC50 values were calculated as previously reported [26]. Triplicates from at least three independent experiments were used.

[2] = tested on: MCF7 (human breast adenocarcinoma cell line); assay: Cytotoxicity, resazurin assay, 72 h; conditions: MCF7, 72 h, read-out: Cytotoxicity (IC50) MCF7
Protocol: as §1, §2, §3

[3] = in vitro; conditions: human
Protocol: as §1, §3

[4] = tested on: human umbilical vein endothelial cells (HUVEC); assay: Migration scratch assay; assay type: cell-based; conditions: 20 µM, 20 h of treatment
Protocol: Subsequently, we examined whether the isolated steroids could influence angiogenesis or inflammation in vitro. […] Only non-cytotoxic concentrations in HUVECs were used for the scratch assay.
The scratch test was performed with HUVEC cells and evaluated after 20 h of treatment, as previously reported.

[5] = Cytotoxicity, resazurin assay, 72 h; conditions: human, BJ cells (human normal fibroblasts)
Protocol: as §1, §3

[6] = tested on: BJ (human normal fibroblasts)
Protocol: as §1, §3

[7] = tested on: neuron-like SH-SY5Y cells; assay: Cell death in 3-NPA model, propidium iodide (PI) assay; assay type: cell-based, human; conditions: maximal effect at 10 µM, with 20 mM 3-NPA, 48 h
Protocol: In order to evaluate the potential neuroprotective effect of the compounds, neuroblastoma cell line SH-SY5Y was differentiated for 48 h and further exposed to 20 mM 3-nitropropionic acid (3-NPA) as an agent mimicking Huntington’s disease in vitro [25]. 3-NPA was used alone or in co-treatment with the tested compounds at concentrations of 0.1–10 µM. […] In general, PI as a positively charged dye is associated with an increase of cell damage or death, since it penetrates cells with cell-disrupted membranes. Within the 3-NPA model, its toxic effect was considered as 100% of the PI signal and thus reduction of cell death was determined.
N-acetylcysteine (NAC) was used as a positive control. * p compared with vehicle with 20 mM 3-NPA, # p compared with vehicle without 20 mM 3-NPA.
Cell death of SH-SY5Y cells (20,000 cells/well) was determined using the propidium iodide (PI) assay according to Stone et al. with a slight modification. […] The resulting fluorescence of 3-NPA toxin was considered as 100% cell death. In the assays, neuron-like cells were treated with the tested compounds in 0.1–10 µM concentration range for 48 h. DMSO-treated cells (≤0.1% v/v) were used as healthy controls.

[8] = tested on: androgen receptor (AR); assay: AR-transcriptional reporter assay (luciferase) in 22Rv1-ARE14 cells; conditions: 24 h; for Luciferase activity (AR-mediated transcription), in words: six concentrations, already at submicromolar concentrations
Protocol: Therefore, we further analyzed the influence of the isolated steroids on AR-mediated transcription. […] Control cells were grown in charcoal-stripped serum medium (CSS). Cells were stimulated with either 1 nM methyltrienolone R1881 (R) or with the tested compounds in six different concentrations for 24 h in CSS. The luciferase activity was measured in the cell lysate. […] The experiment was repeated three times in triplicates.
AR-transcriptional reporter assays were performed on 22Rv1-ARE14 cells after 24 h of incubation, as previously described [22].

[9] = Stability of the isolated metabolite during structure elucidation; assay type: physicochemical; conditions: degraded prior to the acquisition of heteronuclear NMR spectra
Excerpt: Compound 2 shared quite similar spectroscopic features with 1. In particular, all signals attributed to the steroidal nucleus, with the most prominent being the signals of the two angular methyls H3-18 and H3-19 (δH 1.09 and 0.94, respectively), the methyl at C-4 (δH 1.04), the oxymethine H-3 (δH 3.10), and the two olefinic protons H-9 and H-11 (δH 5.27 and 5.41, respectively), were also evident in the ^1H NMR spectrum of compound 2 (Table 1). The most significant difference observed was the replacement of the 1,2-disubstituted double bond in the side chain of 1 by a 1,1-disustituted double bond (δH 4.63 and 4.70) in the side chain of 2. The correlations observed in the COSY spectrum of 2 identified the relevant spin systems; however, metabolite 2 was proven unstable and degraded prior to the acquisition of heteronuclear NMR spectra. Nevertheless, the high structural similarity of 2 with compound 1 renders safe the proposed identification of 2 as (9E)-3β-hydroxy-4α,24-dimethyl-8,9-seco-5α-cholesta-9(11),24(28)-dien-8-one.

CC(C)[C@@H](C)/C=C/[C@@H](C)[C@H]1CC[C@H]2[C@@H]3CC[C@H]4[C@H](C)[C@@H](O)CC[C@]4(C)[C@H]3CC[C@]12C [Compound 4, (22E,24R)-4α,24-dimethyl-5α-cholest-22-en-3β-ol]
IC50 [1]: > 50 µM | IC50 [2]: > 50 µM | IC50 at 72 h [3]: > 50 µM

C=C(CCC(C)C1CCC2C3C(OC(C)=O)C=C4CC(O)CCC4(CO)C3CCC12C)C(C)C (stereo not drawn) [Compound 22, 7β-acetoxy-24-methyl-cholesta-5,24(28)-dien-3β,19-diol]
Inhibition of HUVEC migration [4]: partially inhibited | IC50 [1]: 7.5 ± 0.1 µM | IC50 at 72 h [5]: 14.8 ± 5.8 µM | IC50 [2]: 8.9 µM

CC(C)C(C)/C=C\[C@@H](C)[C@H]1CC[C@H]2[C@]3(O)CC[C@H]4[C@H](C)[C@@H](O)CC[C@]4(C)[C@H]3[C@@H](O)[C@H](O)[C@]12C (stereo partly drawn) [Compound 14, (22Z)-4α,24ξ-dimethyl-5α-cholest-22-en-3β,8β,11β,12α-tetraol]
Cytotoxicity toward normal cells (BJ), in words [6]: absence of cytotoxicity | IC50 [1]: > 50 µM | IC50 [2]: 29.1 ± 5 µM | IC50 at 72 h [3]: > 50 µM

CC(C)[C@@H](C)/C=C/[C@@H](C)[C@H]1CC[C@H]2C3=C[C@@H](O)[C@@]4(O)C[C@@H](O)CC[C@]4(C)[C@H]3CC[C@]12C [Compound 26, (22E,24R)-24-methyl-cholesta-7,22-dien-3β,5α,6β-triol]
IC50 [1]: > 50 µM | IC50 [2]: > 50 µM | IC50 at 72 h [3]: > 50 µM

C=C(CCC(C)C1CCC2C3CC=C4CC(O)CCC4(C)C3CCC12C)C(C)C (stereo not drawn) [Compound 17, 24-methyl-cholesta-5,24(28)-dien-3β-οl]
IC50 [1]: > 50 µM | IC50 at 72 h [5]: > 50 µM | IC50 [2]: > 50 µM

C=C(CCC(C)C1CCC2C3C(=O)C=C4CC(O)CCC4(CO)C3CCC12C)C(C)C (stereo not drawn) [Compound 24, 7-oxo-24-methyl-cholesta-5,24(28)-dien-3β,19-diol]
IC50 [1]: 21.4 ± 2 µM | IC50 [2]: 31.7 ± 0.3 µM | IC50 at 72 h [3]: 45.9 ± 2.8 µM

C=C(CCC(C)C1CCC2C3CC=C4CC(O)CCC4(CO)C3CCC12C)C(C)C (stereo not drawn) [Compound 19, 24-methyl-cholesta-5,24(28)-dien-3β,19-diol]
IC50 [1]: > 50 µM | IC50 [2]: > 50 µM | IC50 at 72 h [3]: > 50 µM

CC(=O)O[C@H]1C=C2C[C@@H](O)CC[C@]2(CO)[C@H]2CC[C@]3(C)[C@@H]([C@H](C)CCCC(C)C)CC[C@H]3[C@H]12 [Compound 23, 7β-acetoxy-cholest-5-en-3β,19-diol]
Inhibition of HUVEC migration [4]: partially inhibited | IC50 [1]: 12 ± 1.7 µM | IC50 [2]: 11.2 ± 0.5 µM | Effect on cell death (PI assay), in words [7]: significantly reduced cell death | IC50 at 72 h [3]: 14.5 ± 3.9 µM

C[C@]12CC[C@H](O)CC1=CC[C@@H]1[C@@H]2CC[C@]2(C)C(n3cnc4ccccc43)=CC[C@@H]12 [Galeterone, reference compound]
Inhibition of AR-regulated transcription ([8]; 10 µM, 22Rv1-ARE14): 22%

C=C(CCC(C)C1CCC2C3(O)CCC4C(C)C(O)CCC4(C)C3CCC12CO)C(C)C (stereo not drawn) [Compound 15, 4α,24-dimethyl-5α-cholest-24(28)-en-3β,8β,18-triol]
Cytotoxicity toward normal cells (BJ), in words [6]: absence of cytotoxicity | IC50 [1]: 19 ± 4.3 µM | IC50 [2]: 18.9 ± 0.1 µM | IC50 at 72 h [3]: > 50 µM

C=C(CCC(C)C1CCC2C1(C)CC(O)C1C3(C)CCC(O)C(C)C3CCC21O)C(C)C (stereo not drawn) [Compound 9, 4α,24-dimethyl-5α-cholest-24(28)-en-3β,8β,11β-triol]
IC50 [1]: 25.9 ± 4.9 µM | IC50 [2]: 36.4 ± 5.7 µM | IC50 at 72 h [3]: 18.3 ± 4 µM

C=C(C(C)C)C(CC(C)C1CCC2C1(C)CC(O)C1C3(C)CCC(O)C(C)C3CCC21O)OC(C)=O (stereo not drawn) [Compound 12, 23ξ-acetoxy-4α,24-dimethyl-5α-cholest-24(28)-en-3β,8β,11β-triol]
Luciferase activity (AR-mediated transcription), in words [8]: clearly reduced luciferase activity in a dose-dependent manner | Cytotoxicity toward normal cells (BJ), in words [6]: absence of cytotoxicity | Inhibition of HUVEC migration [4]: partially inhibited | IC50 [1]: 15.7 ± 2 µM | IC50 [2]: 25.3 ± 6.5 µM | IC50 at 72 h [3]: > 50 µM

CC(C)[C@@H](C)/C=C/[C@@H](C)[C@H]1CC[C@@H]2[C@]1(C)C[C@H](O)[C@@H]1[C@@]3(C)CC[C@H](O)[C@@H](C)[C@@H]3CC[C@@]21O [Compound 10, (22E,24R)-4α,24-dimethyl-5α-cholest-22-en-3β,8β,11β-triol]
Concentration dependence of AR inhibition [8]: increased inhibition of AR | IC50 [1]: 32.9 ± 6.8 µM | IC50 [2]: 32.7 ± 1.3 µM | IC50 at 72 h [3]: 4.1 ± 1.9 µM

C=C(C(=O)CC(C)C1CCC2C1(C)CCC1C3(C)CCC(O)C(C)C3CCC21O)C(C)C (stereo not drawn) [Compound 7, 23-oxo-4α,24-dimethyl-5α-cholest-24(28)-en-3β,8β-diol]
IC50 [1]: > 50 µM | IC50 [2]: > 50 µM | IC50 at 72 h [3]: > 50 µM

C=C(CCC(C)C1CCC2C3CCC4C(C)C(O)CCC4(C)C3CCC12C)C(C)C (stereo not drawn) [Compound 3, 4α,24-dimethyl-5α-cholest-24(28)-en-3β-οl]
IC50 [1]: > 50 µM | IC50 [2]: > 50 µM | IC50 at 72 h [3]: > 50 µM

CC(C)[C@@H](C)/C=C/[C@@H](C)[C@H]1CC[C@@H]2[C@]1(C)CC[C@@H]1[C@@]3(C)CC[C@H](O)[C@@H](C)[C@@H]3CC[C@@]21O [Compound 6, (22E,24R)-4α,24-dimethyl-5α-cholest-22-en-3β,8β-diol]
IC50 [1]: > 50 µM | IC50 [2]: > 50 µM | IC50 at 72 h [3]: > 50 µM

C=C(CCC(C)C1CCC2C3=CC(O)C4(O)CC(O)CCC4(C)C3CCC21C)C(C)C (stereo not drawn) [Compound 25, 24-methyl-cholesta-7,24(28)-dien-3β,5α,6β-triol]
IC50 [1]: > 50 µM | IC50 [2]: > 50 µM | IC50 at 72 h [3]: > 50 µM

C=C(C(=O)CC(C)C1CCC2C1(C)CC(O)C1C3(C)CCC(O)C(C)C3CCC21O)C(C)C (stereo not drawn) [Compound 11, 23-oxo-4α,24-dimethyl-5α-cholest-24(28)-en-3β,8β,11β-triol]
Rank of AR inhibition ([8]; 10 µM): strongest inhibition of AR | Luciferase activity (AR-mediated transcription), in words [8]: clearly reduced luciferase activity in a dose-dependent manner | Cytotoxicity toward normal cells (BJ), in words [6]: absence of cytotoxicity | Inhibition of HUVEC migration [4]: partially inhibited | IC50 [1]: 18.8 ± 6.4 µM | IC50 [2]: 21.7 ± 1.4 µM | Effect on cell death (PI assay), in words [7]: significantly reduced cell death | IC50 at 72 h [3]: > 50 µM

C=C(CCC(C)C1CCC2C1(C)CCC1C3(C)CCC(O)C(C)C3CCC21O)C(C)C (stereo not drawn) [Compound 5, 4α,24-dimethyl-5α-cholest-24(28)-en-3β,8β-diol]
IC50 [1]: > 50 µM | IC50 [2]: > 50 µM | IC50 at 72 h [3]: > 50 µM

CC(C)[C@@H](C)/C=C/[C@@H](C)[C@H]1CC[C@H]2[C@]3(O)CC[C@H]4[C@H](C)[C@@H](O)CC[C@]4(C)[C@H]3CC[C@]12CO [Compound 16, (22E,24R)-4α,24-dimethyl-5α-cholest-22-en-3β,8β,18-triol]
Concentration dependence of AR inhibition [8]: increased inhibition of AR | Luciferase activity (AR-mediated transcription), in words [8]: clearly reduced luciferase activity in a dose-dependent manner | IC50 [1]: 32.9 ± 5.2 µM | IC50 [2]: 33.8 ± 1 µM | IC50 at 72 h [3]: 23.2 ± 1.4 µM

C=C(CC[C@@H](C)[C@H]1CC[C@H]2C(=O)CC[C@H]3[C@H](C)[C@@H](O)CC[C@]3(C)/C=C/C[C@]12C)C(C)C [Compound 2, (9E)-3β-hydroxy-4α,24-dimethyl-8,9-seco-5α-cholesta-9(11),24(28)-dien-8-one]
Stability [9]: unstable

C=C(CCC(C)C1CCC2C3C(O)C=C4CC(O)CCC4(C)C3CCC12C)C(C)C (stereo not drawn) [Compound 18, 24-methyl-cholesta-5,24(28)-dien-3β,7β-diol]
Cytotoxicity toward normal cells (BJ), in words [6]: absence of cytotoxicity | IC50 [1]: 22.6 ± 0.4 µM | IC50 [2]: 28.6 ± 5.3 µM | IC50 at 72 h [3]: > 50 µM

C=C(C=CC(C)C1CCC2C3CC=C4CC(O)CCC4(CO)C3CCC12C)C(C)C (stereo not drawn) [Compound 20, (22E)-24-methyl-cholesta-5,22,24(28)-trien-3β,19-diol]
Concentration dependence of AR inhibition [8]: increased inhibition of AR | Luciferase activity (AR-mediated transcription), in words [8]: clearly reduced luciferase activity in a dose-dependent manner | IC50 [1]: > 50 µM | IC50 [2]: > 50 µM | IC50 at 72 h [3]: > 50 µM
